The data set has as its system 4T1 mouse breast cancer cell xenografted model. In words: In vivo antitumor efficacy, 4T1 mouse breast cancer xenografted model. To be noted: BALB/c female mice, 4T1 tumor. Here is the method:
All animal experiments were performed complying with the guidelines for the care and use of laboratory animals of the Peking University Animal Study Committee’s requirements. Experimental procedures were carried out by a protocol approved for institutional animal care. A total of 24 BALB/c female mice (5–6 weeks) were used in this study. The PBS suspension containing 2.5 × 10^4 4T1 cells was injected subcutaneously into female BALB/c mice. […] The body weight and tumor volume of each mouse were measured at regular intervals to evaluate the antitumor effects and toxicity of different drugs. […] One mouse from each group was randomly selected, and its major organs and tumor tissues were collected, then Hematoxylin and Eosin (H&E) staining were utilized to evaluate the degree of apoptosis in mice.

As for `COc1cccc2c1C(=O)c1c(O)c3c(c(O)c1C2=O)C[C@@](O)(C(=O)CO)C[C@@H]3O[C@H]1C[C@H](N)[C@H](O)[C@H](C)O1` [DOX, Doxorubicin], the “body weight change during treatment” value (tail vein injection) is “decreased significantly”. Also, the final tumor weight is reported as 0.47 g (tail vein injection on days 0, 4, 8, 12) and 0.67 g (tail vein injection on days 0, 4, 8, 12, listed as free DOX). Moreover, the “tumor volume increase after 14 days” value (tail vein injection on days 0, 4, 8, 12, group sacrificed on the 14th day) was found to be 11.03 fold.
